Measurements reported in the CheMixHub ionic liquid set.
± gives the uncertainty stated by the source.

Assay: xn = mol fraction of the nth substance listed

FC(F)C(F)(F)COC(F)(F)C(F)F + O=S(=O)([N-]S(=O)(=O)C(F)(F)F)C(F)(F)F.[Li+] + O=S1(=O)CCCC1
electrical conductivity (303.15 K, 101 kPa, x2 = 0.1429, x3 = 0.5714): 0.073 ± 0.002 S/m
electrical conductivity (303.15 K, 101 kPa, x2 = 0.1818, x3 = 0.5455): 0.09 ± 0.002 S/m
electrical conductivity (303.15 K, 101 kPa, x2 = 0.25, x3 = 0.5): 0.09 ± 0.002 S/m
electrical conductivity (303.15 K, 101 kPa, x2 = 0.4, x3 = 0.4): 0.079 ± 0.002 S/m

O=S(=O)([N-]S(=O)(=O)C(F)(F)F)C(F)(F)F.[Li+] + O=S(=O)([O-])C(F)(F)F.[Li+] + O
viscosity (298.15 K, 100 kPa, x2 = 0, x1 = 0.112): 5.2 ± 0.4 mPa·s
viscosity (298.15 K, 100 kPa, x2 = 0, x1 = 0.1896): 15.8 ± 1.3 mPa·s
viscosity (298.15 K, 100 kPa, x2 = 0, x1 = 0.2333): 30.7 ± 2.5 mPa·s
viscosity (298.15 K, 100 kPa, x2 = 0, x1 = 0.2547): 42.3 ± 3.4 mPa·s
viscosity (298.15 K, 100 kPa, x2 = 0, x1 = 0.2741): 54.1 ± 4.3 mPa·s
viscosity (308.15 K, 100 kPa, x2 = 0, x1 = 0.112): 4.3 ± 0.3 mPa·s
viscosity (308.15 K, 100 kPa, x2 = 0, x1 = 0.1896): 11.5 ± 0.9 mPa·s
viscosity (308.15 K, 100 kPa, x2 = 0, x1 = 0.2333): 21.5 ± 1.7 mPa·s
viscosity (308.15 K, 100 kPa, x2 = 0, x1 = 0.2547): 29 ± 2.3 mPa·s
viscosity (308.15 K, 100 kPa, x2 = 0, x1 = 0.2741): 36.1 ± 2.9 mPa·s
viscosity (318.15 K, 100 kPa, x2 = 0, x1 = 0.112): 3.4 ± 0.3 mPa·s
viscosity (318.15 K, 100 kPa, x2 = 0, x1 = 0.1896): 8.6 ± 0.7 mPa·s
viscosity (318.15 K, 100 kPa, x2 = 0, x1 = 0.2333): 15.8 ± 1.3 mPa·s
viscosity (318.15 K, 100 kPa, x2 = 0, x1 = 0.2547): 20.9 ± 1.7 mPa·s
viscosity (318.15 K, 100 kPa, x2 = 0, x1 = 0.2741): 25.5 ± 2 mPa·s
viscosity (328.15 K, 100 kPa, x2 = 0, x1 = 0.112): 2.8 ± 0.2 mPa·s
viscosity (328.15 K, 100 kPa, x2 = 0, x1 = 0.1896): 6.6 ± 0.5 mPa·s
viscosity (328.15 K, 100 kPa, x2 = 0, x1 = 0.2333): 12 ± 1 mPa·s
viscosity (328.15 K, 100 kPa, x2 = 0, x1 = 0.2547): 15.6 ± 1.3 mPa·s
viscosity (328.15 K, 100 kPa, x2 = 0, x1 = 0.2741): 18.7 ± 1.5 mPa·s

O=S(=O)([N-]S(=O)(=O)C(F)(F)F)C(F)(F)F.[Li+] + OCCO
electrical conductivity (333 K, 100 kPa, frequency 1 MHz, x1 = 0.5): 0.8 ± 0.08 S/m
viscosity (333 K, 100 kPa, x1 = 0.5): 21.68 ± 0.23 mPa·s

CC[N+]1(C)CCCC1.[Br-] + OC[C@H]1O[C@@H]2O[C@H]3[C@H](O)[C@@H](O)[C@@H](O[C@H]4[C@H](O)[C@@H](O)[C@@H](O[C@H]5[C@H](O)[C@@H](O)[C@@H](O[C@H]6[C@H](O)[C@@H](O)[C@@H](O[C@H]7[C@H](O)[C@@H](O)[C@@H](O[C@H]8[C@H](O)[C@@H](O)[C@@H](O[C@H]1[C@H](O)[C@H]2O)O[C@@H]8CO)O[C@@H]7CO)O[C@@H]6CO)O[C@@H]5CO)O[C@@H]4CO)O[C@@H]3CO + O
viscosity (298.15 K, 100 kPa, x2 = 1.587e-05, x1 = 0.001261): 1.38 ± 0.03 mPa·s
viscosity (298.15 K, 100 kPa, x2 = 1.587e-05, x1 = 0.001531): 1.4 ± 0.03 mPa·s
viscosity (298.15 K, 100 kPa, x2 = 1.588e-05, x1 = 0.0009911): 1.37 ± 0.03 mPa·s
viscosity (298.15 K, 100 kPa, x2 = 4.77e-05, x1 = 0.001534): 1.45 ± 0.03 mPa·s
viscosity (298.15 K, 100 kPa, x2 = 4.771e-05, x1 = 0.001264): 1.42 ± 0.03 mPa·s
viscosity (298.15 K, 100 kPa, x2 = 4.772e-05, x1 = 0.0009931): 1.39 ± 0.03 mPa·s

CCCCCCCCCC[n+]1ccn(C)c1.[Cl-] + OC[C@H]1O[C@@](CO)(O[C@H]2O[C@H](CO)[C@@H](O)[C@H](O)[C@H]2O)[C@@H](O)[C@@H]1O + O
electrical conductivity (298.15 K, 101.3 kPa, x2 = 0, x1 = 6.46e-06): 0.00385 ± 4e-05 S/m
electrical conductivity (298.15 K, 101.3 kPa, x2 = 0, x1 = 9.55e-06): 0.00548 ± 6e-05 S/m
electrical conductivity (298.15 K, 101.3 kPa, x2 = 0, x1 = 1.262e-05): 0.00708 ± 7e-05 S/m
electrical conductivity (298.15 K, 101.3 kPa, x2 = 0, x1 = 1.582e-05): 0.00872 ± 9e-05 S/m
electrical conductivity (298.15 K, 101.3 kPa, x2 = 0, x1 = 1.894e-05): 0.0103 ± 0.0001 S/m
electrical conductivity (298.15 K, 101.3 kPa, x2 = 0, x1 = 2.2e-05): 0.0118 ± 0.00012 S/m
electrical conductivity (298.15 K, 101.3 kPa, x2 = 0, x1 = 2.507e-05): 0.01334 ± 0.00013 S/m
electrical conductivity (298.15 K, 101.3 kPa, x2 = 0, x1 = 2.8e-05): 0.0148 ± 0.00015 S/m
electrical conductivity (298.15 K, 101.3 kPa, x2 = 0, x1 = 3.092e-05): 0.0162 ± 0.00016 S/m
electrical conductivity (298.15 K, 101.3 kPa, x2 = 0, x1 = 3.384e-05): 0.0176 ± 0.00018 S/m
electrical conductivity (298.15 K, 101.3 kPa, x2 = 0.003591, x1 = 7.14e-06): 0.00361 ± 4e-05 S/m
electrical conductivity (298.15 K, 101.3 kPa, x2 = 0.003591, x1 = 1.162e-05): 0.00554 ± 6e-05 S/m
electrical conductivity (298.15 K, 101.3 kPa, x2 = 0.003591, x1 = 1.987e-05): 0.00901 ± 9e-05 S/m
electrical conductivity (298.15 K, 101.3 kPa, x2 = 0.003591, x1 = 2.367e-05): 0.0106 ± 0.00011 S/m
electrical conductivity (298.15 K, 101.3 kPa, x2 = 0.003591, x1 = 2.764e-05): 0.01214 ± 0.00012 S/m
electrical conductivity (298.15 K, 101.3 kPa, x2 = 0.003591, x1 = 3.131e-05): 0.0136 ± 0.00014 S/m
electrical conductivity (298.15 K, 101.3 kPa, x2 = 0.003591, x1 = 3.559e-05): 0.01531 ± 0.00015 S/m
electrical conductivity (298.15 K, 101.3 kPa, x2 = 0.003591, x1 = 3.942e-05): 0.0168 ± 0.00017 S/m
electrical conductivity (298.15 K, 101.3 kPa, x2 = 0.003591, x1 = 4.357e-05): 0.0184 ± 0.00018 S/m
electrical conductivity (298.15 K, 101.3 kPa, x2 = 0.007156, x1 = 4.94e-06): 0.00234 ± 2e-05 S/m
electrical conductivity (298.15 K, 101.3 kPa, x2 = 0.007156, x1 = 9.37e-06): 0.0041 ± 4e-05 S/m
electrical conductivity (298.15 K, 101.3 kPa, x2 = 0.007156, x1 = 1.394e-05): 0.00589 ± 6e-05 S/m
electrical conductivity (298.15 K, 101.3 kPa, x2 = 0.007156, x1 = 1.816e-05): 0.00752 ± 8e-05 S/m
electrical conductivity (298.15 K, 101.3 kPa, x2 = 0.007156, x1 = 2.215e-05): 0.00905 ± 9e-05 S/m
electrical conductivity (298.15 K, 101.3 kPa, x2 = 0.007156, x1 = 2.62e-05): 0.0106 ± 0.00011 S/m
electrical conductivity (298.15 K, 101.3 kPa, x2 = 0.007156, x1 = 3.004e-05): 0.01205 ± 0.00012 S/m
electrical conductivity (298.15 K, 101.3 kPa, x2 = 0.007156, x1 = 3.378e-05): 0.0135 ± 0.00014 S/m
electrical conductivity (298.15 K, 101.3 kPa, x2 = 0.007156, x1 = 3.734e-05): 0.0148 ± 0.00015 S/m
electrical conductivity (298.15 K, 101.3 kPa, x2 = 0.007156, x1 = 4.078e-05): 0.01606 ± 0.00016 S/m
electrical conductivity (298.15 K, 101.3 kPa, x2 = 0.0107, x1 = 8.82e-06): 0.00336 ± 3e-05 S/m
electrical conductivity (298.15 K, 101.3 kPa, x2 = 0.0107, x1 = 1.279e-05): 0.00469 ± 5e-05 S/m
electrical conductivity (298.15 K, 101.3 kPa, x2 = 0.0107, x1 = 1.666e-05): 0.00596 ± 6e-05 S/m
electrical conductivity (298.15 K, 101.3 kPa, x2 = 0.0107, x1 = 2.02e-05): 0.00712 ± 7e-05 S/m
electrical conductivity (298.15 K, 101.3 kPa, x2 = 0.0107, x1 = 2.387e-05): 0.00828 ± 8e-05 S/m
electrical conductivity (298.15 K, 101.3 kPa, x2 = 0.0107, x1 = 2.723e-05): 0.00939 ± 9e-05 S/m
electrical conductivity (298.15 K, 101.3 kPa, x2 = 0.0107, x1 = 3.056e-05): 0.0105 ± 0.00011 S/m
electrical conductivity (298.15 K, 101.3 kPa, x2 = 0.0107, x1 = 3.344e-05): 0.01139 ± 0.00011 S/m
electrical conductivity (298.15 K, 101.3 kPa, x2 = 0.0107, x1 = 3.674e-05): 0.0124 ± 0.00013 S/m
electrical conductivity (298.15 K, 101.3 kPa, x2 = 0.0107, x1 = 3.975e-05): 0.0134 ± 0.00013 S/m
electrical conductivity (298.15 K, 101.3 kPa, x2 = 0.01421, x1 = 8.46e-06): 0.00279 ± 3e-05 S/m
electrical conductivity (298.15 K, 101.3 kPa, x2 = 0.01421, x1 = 1.229e-05): 0.00388 ± 4e-05 S/m
electrical conductivity (298.15 K, 101.3 kPa, x2 = 0.01421, x1 = 1.596e-05): 0.00491 ± 5e-05 S/m
electrical conductivity (298.15 K, 101.3 kPa, x2 = 0.01421, x1 = 1.986e-05): 0.00599 ± 6e-05 S/m
electrical conductivity (298.15 K, 101.3 kPa, x2 = 0.01421, x1 = 2.304e-05): 0.00688 ± 7e-05 S/m
electrical conductivity (298.15 K, 101.3 kPa, x2 = 0.01421, x1 = 2.641e-05): 0.0078 ± 8e-05 S/m
electrical conductivity (298.15 K, 101.3 kPa, x2 = 0.01421, x1 = 2.985e-05): 0.00874 ± 9e-05 S/m
electrical conductivity (298.15 K, 101.3 kPa, x2 = 0.01421, x1 = 3.276e-05): 0.00953 ± 0.0001 S/m
electrical conductivity (298.15 K, 101.3 kPa, x2 = 0.01421, x1 = 3.602e-05): 0.01042 ± 0.0001 S/m
electrical conductivity (298.15 K, 101.3 kPa, x2 = 0.01421, x1 = 3.892e-05): 0.01121 ± 0.00011 S/m
electrical conductivity (298.15 K, 101.3 kPa, x2 = 0.0177, x1 = 1.052e-05): 0.00291 ± 3e-05 S/m
electrical conductivity (298.15 K, 101.3 kPa, x2 = 0.0177, x1 = 1.539e-05): 0.00407 ± 4e-05 S/m
electrical conductivity (298.15 K, 101.3 kPa, x2 = 0.0177, x1 = 2e-05): 0.00515 ± 5e-05 S/m
electrical conductivity (298.15 K, 101.3 kPa, x2 = 0.0177, x1 = 2.419e-05): 0.00614 ± 6e-05 S/m
electrical conductivity (298.15 K, 101.3 kPa, x2 = 0.0177, x1 = 2.851e-05): 0.00714 ± 7e-05 S/m
electrical conductivity (298.15 K, 101.3 kPa, x2 = 0.0177, x1 = 3.269e-05): 0.0081 ± 8e-05 S/m
electrical conductivity (298.15 K, 101.3 kPa, x2 = 0.0177, x1 = 3.635e-05): 0.00895 ± 9e-05 S/m
electrical conductivity (298.15 K, 101.3 kPa, x2 = 0.0177, x1 = 4.032e-05): 0.00985 ± 0.0001 S/m
electrical conductivity (298.15 K, 101.3 kPa, x2 = 0.0177, x1 = 4.414e-05): 0.0107 ± 0.00011 S/m

CCn1cc[nH+]c1.O=S(=O)([N-]S(=O)(=O)C(F)(F)F)C(F)(F)F + c1c[nH]cn1
electrical conductivity (303.15 K, 100 kPa, x1 = 0.948): 0.427 ± 0.026 S/m
